Results published in patent US10905658B2, “Methods and compositions for detecting hematopoietic and lymphoid tissue cancer cells” (WAYNE STATE UNIVERSITY, priority 2016, dated 2021).

Experiments:
[1] = system: B-NHL cell lines; assay: Treatment of B-NHL cell lines with alkoxyamines (cell killing); type: cell-based; conditions: for killing of a B-NHL cell line (cytotoxicity): comparison of alkoxyamines AA3 through AA7, FIG. 17
[2] = system: B-NHL cell lines; assay: as above; type: cell-based; conditions: for effect on cell growth / cell death: B-NHL cells; for cell death: even at 10 mM
Experimental: A 24 hr treatment with 1 mM AA3 killed greater than 40% cells in each culture and at 10 mM concentration, >70% cells were killed (FIG. 11). […] Therefore, AA3 cytocidal to B-NHL cells while MX and ARP are only cytostatic.

[3] = system: AP sites in DNA; assay: AP site labeling reaction on synthetic oligomer (gel shift, click reaction); type: biochemical; conditions: for product formation: pH 7
Experimental: A 6-carboxyfluorescein-(6-FAM-) labeled oligonucleotide U-17-mer (5-6-FAM-ATTATTAUCCATTTATT-3′, […]) was used for the AP site labeling reaction. The oligomer (4 pmol) was incubated with E. coli uracil DNA glycosylase (UDG, 1 unit, New England Labs) at 37° C. for 30 min in reaction buffer containing 20 mM Tris-HCl (pH 8.0), 1 mM DTT and 1 mM EDTA to create AP site containing DNA. The alkoxyamine [methoxyamine, MX (Sigma-Aldrich); aldehyde reactive probe, ARP (Dojindo Laboratories) or AA3] was added into the oligomer solution at indicated concentrations, and incubated at 37° C. for another 30 min. In some experiments, the pH of the solution was adjusted with HCl or NaOH solution following removal of uracil and the pH was confirmed using pH paper. Following the reaction of alkoxyamine, unlabeled AP sites were reduced by the addition of NaBH4 (Sigma-Aldrich) to 100 mM and further incubation for 5 min. If this step was omitted, we observed significant degradation of the DNA. The reactions were stopped by the addition of formamide, loading dye and heating to 95° C. for5 min. The DNAs were electrophoresed in 20% polyacrylamide gels containing 7 M urea and scanned using a Typhoon 9210 phosphorimager (GE Healthcare). Product bands in images were quantified using ImageQuant software. In experiments involving competition between alkoxyamines, AP site containing DNA was reacted with the first alkoxyamine at 37° C. for 30 min. This was followed by the addition of the second alkoxyamine and incubation for an additional 30 min. The reactions were stopped and the products were analyzed as described above.
Biotin azide or Cy5 azide (Lumiprobe) was added to a solution of AA3-linked 17-mer to 0.5 mM followed by the addition of a freshly prepared solution of CuBr/TBTA (1:3 in DMSO/t-BuOH 3:1, 0.5 mM, Sigma-Aldrich). The mixture was shaken at 45° C. for 1 h. The DNAs were electrophoresed and analyzed as described above.

[4] = system: APE-1; assay: AP endonuclease activity assay; type: biochemical, mammalian; conditions: for protection of AP sites against cleavage by APE-1: alkoxyamine reaction at pH 5
Experimental: The cleavage activity of AP endonuclease APE-1 (1 unit, New England Biolabs) was assayed using a 6-FAM labeled oligomer (4 pmol) containing a single uracil. The uracil was excised using UDG to create an AP site and the AP site was labeled with an alkoxyamine as described above. The APE-1 reaction was per-formed in the reaction buffer (50 mM potassium acetate, 20 mM Tris-acetate, 10 mM magnesium acetate, 1 mM DTT, pH 7.9) at 37° C. for 1 h. DNA products were stabilized by incubation with NaBH4 and analyzed by gel electrophoresis as described above.

[5] = system: HeLa cells; assay: Killing of HeLa cells by MMS combined with MX or AA3 (trypan blue exclusion); type: cell-based, human
Experimental: Methyl methanesulfonate (MMS, Sigma-Aldrich) was diluted in phosphate buffered saline. MX or AA3 was dissolved in sterile water, and the pH was adjusted to 7 using NaOH solution. The solutions of all the chemicals were freshly prepared for each cytotoxicity experiment. HeLa cells were seeded in 48-well tissue culture plates at 3×10^4 to 6×10^4 cell/mL and grown overnight in DMEM with 10% fetal bovine serum (HyClone). Cells were treated with MMS or as a combination of MMS with MX or AA3 at indicated concentrations and harvested after 24 h. The viability of the cells was assessed via trypan blue (HyClone) exclusion assay performed using TC20 Automated Cell Counter (Bio-Rad Laboratories).

SMILES: CCCON [AA4, O-(n-propyl)hydroxylamine]
- killing of a B-NHL cell line ([1]; even at 10 mM, FIG. 17): did not significantly kill the cells

SMILES: C#CCCON [AA5, O-(but-3-yn-1-yl)hydroxylamine]
- effectiveness in killing relative to AA3 ([1]; a B-NHL cell line): somewhat less effective
- killing of a B-NHL cell line (cytotoxicity) [1]: killed these cells

SMILES: C=CCON [AA7, O-allylhydroxylamine]
- killing of a B-NHL cell line (cytotoxicity) [1]: cytotoxic

SMILES: NOCCC(=O)NNC(=O)CCCC[C@@H]1SC[C@@H]2NC(=O)N[C@@H]21 [ARP, N′-(3-(aminooxy)propanoyl)-5-((3aS,4S,6aR)-2-oxohexahydro-H-thieno[3,4-d]imidazol-4-yl)pentanehydrazide]
- cytocidal or cytostatic to B-NHL cells [2]: cytostatic
- effect on cell growth [2]: temporary pause in cell growth
- cell death [2]: did not result in cell death
- substrate converted to product ([3]; 0.2 μM oligomer, 5 mM ARP, pH 7 or 8): < 20%
- product formation ([3]; 5 mM): 13%
- product formation ([3]; 10 mM): 20%
- DNA cleaved by APE-1 ([4]; AP sites reacted with alkoxyamine at pH 7): about 90%
- protection of AP sites against cleavage by APE-1 [4]: 74%

SMILES: COS(C)(=O)=O [MMS, Methyl methanesulfonate]
- loss of viability ([5]; MMS alone, 50 µM, after one day): very little loss of viability

SMILES: CON [MX, methoxyamine]
- cytocidal or cytostatic to B-NHL cells [2]: cytostatic
- effect on cell growth [2]: temporary pause in cell growth
- cell death [2]: did not result in cell death
- protection of AP sites against cleavage by APE-1 [4]: ~100%
- protection of AP sites against APE-1 ([4]; alkoxyamine reaction at pH 7): protected an overwhelming majority of AP sites
- enhancement of killing by MMS ([5]; 10 mM with MMS, six independent cultures): did enhance killing by MMS
